Measured values as given in patent US20230406883A1, “COMPOUNDS AND THEIR USE IN TREATMENT OF TACHYKININ RECEPTOR MEDIATED DISORDERS” (Embark Biotech ApS, priority 2020, published 2023).
Where “and” joins values, the source holds several entries; their conditions need not be identical. Equal entries are not always repeated. Where two headings read alike, the source gives them in different places. Numbered stars: 1 amine (or outer) side, 2 acyl side, 3 side chain; on linkers, the order of the positions; unused ones are H or OH. Square brackets hold non-standard residues; d marks the D form. Peptide text beside a SMILES is read from it. * marks the point of attachment. C18 diacid = O=C(O)CCCCCCCCCCCCCCCCC(=O)*; γGlu = O=C(O)[C@H](CCC(=O)[*:2])N[*:1]; NMeL = CN[C@@H](CC(C)C)C(=O)O; hSer = N[C@@H](CCO)C(=O)O; Nle = CCCC[C@H](N)C(=O)O; AEEA = NCCOCCOCC(=O)O

Tests used:
hNK2R = biological target: T1, hNK2R (Homo sapiens, UniProt P21452); test: IP3 assay (inositol trisphosphate, 3H-myoinositol) in transiently transfected COS-7 cells; type: cell-based; conditions: COS-7 cells; for EC50: 0.2% ovalbumin buffer; for hNK2R, IP3 Efficacy: figure legends: percent of 10^-6 M NKA
T1 construct: host or cells: COS-7
T1 sequence (P21452 1-398): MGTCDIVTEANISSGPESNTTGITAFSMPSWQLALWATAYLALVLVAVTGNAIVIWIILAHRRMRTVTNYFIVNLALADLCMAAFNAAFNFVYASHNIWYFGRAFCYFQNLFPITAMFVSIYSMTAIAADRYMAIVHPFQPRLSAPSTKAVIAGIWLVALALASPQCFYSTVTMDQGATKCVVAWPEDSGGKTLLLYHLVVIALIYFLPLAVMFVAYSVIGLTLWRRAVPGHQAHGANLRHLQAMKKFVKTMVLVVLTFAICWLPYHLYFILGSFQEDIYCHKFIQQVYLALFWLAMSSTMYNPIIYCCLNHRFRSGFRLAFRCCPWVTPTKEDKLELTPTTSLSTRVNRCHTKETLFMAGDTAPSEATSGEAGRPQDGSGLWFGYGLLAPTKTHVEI
Method in brief: (§1)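 COS-7 cells were transiently transfected with receptor plasmid and labelled with ³H-myo-inositol. Cells were lysed in formic acid, and ³H-inositol phosphates were captured on SPA YSI beads and counted.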

hNK1R = biological target: T2, hNK1R (Homo sapiens, UniProt P25103); test: as above; type: cell-based; conditions: for EC50: 0.2% ovalbumin buffer
T2 construct: host or cells: COS-7
Method in brief: as §1

[1] = Energy expenditure and weight loss pharmacodynamics in DIO mice; type: in vivo; design: Energy expenditure efficacy (change relative to vehicle control) / Weight loss efficacy (change relative to vehicle control): concentration or dose not given beside the values; conditions: for Energy expenditure EC50 / Energy expenditure efficacy (change relative to vehicle control) / Weight loss EC50 / Weight loss efficacy (change relative to vehicle control): daily s.c. injections for nine days
Procedure: Indirect calorimetry was used to evaluate the ability of individual peptide analogues to dose-dependently increase energy expenditure (EE) we used metabolic cages and indirect calorimetry measured by the Promethion system. To this end, oxygen consumption was used as a surrogate measure for EE. Substrate preference (fat or carbohydrate) was evaluated using the respiratory exchange ratio (RER). In parallel, behavioral information such as walking distance and water and food intake were recorded.
Prior to experimentation, DIO mice were transferred to habituation cages for at least 10 days (5 days outside and at least 5 days in the Sable Systems gas analyzer module) to acclimatize. For all in vivo compound tests for EE evaluation, mice received subcutaneous injections between 2 and 4 pm.
Energy expenditure and weight loss pharmacodynamics: To evaluate the ability of individual peptide analogues to dose-dependently increase EE by indirect calorimetry in DIO mice. Body weights were monitored from beginning of habituation until end of experiment. After habituation, mice were treated with daily injections of NKA(4-10) analogues at four different doses or vehicle by daily subcutaneous injections for nine days.
EE increase over vehicle was calculated as percent of mean oxygen consumption over a 30-hour period after injection. Prior to injection peptide analogues were dissolved and diluted in in vivo buffer. In order to take into account, the different half-lives for the compounds tested, the doses for each compound were calculated based on the given compound's individual pk-profiles.

hNK3R = biological target: T3, hNK3R (Homo sapiens, UniProt P29371); test: IP3 assay (inositol trisphosphate, 3H-myoinositol) in transiently transfected COS-7 cells; type: cell-based; conditions: for EC50: 0.2% ovalbumin buffer, read-out: hNK3, IP3 EC50
T3 construct: host or cells: COS-7
T3 sequence (P29371 1-465): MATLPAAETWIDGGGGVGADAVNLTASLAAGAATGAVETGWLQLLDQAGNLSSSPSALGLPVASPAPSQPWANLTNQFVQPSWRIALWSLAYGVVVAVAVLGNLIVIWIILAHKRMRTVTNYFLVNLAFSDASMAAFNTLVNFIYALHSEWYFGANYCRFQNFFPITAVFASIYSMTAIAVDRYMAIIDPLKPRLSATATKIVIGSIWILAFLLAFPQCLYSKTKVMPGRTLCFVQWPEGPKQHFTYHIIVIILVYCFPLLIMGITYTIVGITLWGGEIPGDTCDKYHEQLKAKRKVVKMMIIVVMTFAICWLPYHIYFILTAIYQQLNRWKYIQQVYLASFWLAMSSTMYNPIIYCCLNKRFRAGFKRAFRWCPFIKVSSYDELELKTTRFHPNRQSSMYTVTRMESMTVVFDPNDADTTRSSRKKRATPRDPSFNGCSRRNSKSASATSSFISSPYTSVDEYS
Method in brief: as §1

[2] = COS-7 cells, figure legends: percent of 10^-6 M NKA

T2 sequence (P25103 whole entry): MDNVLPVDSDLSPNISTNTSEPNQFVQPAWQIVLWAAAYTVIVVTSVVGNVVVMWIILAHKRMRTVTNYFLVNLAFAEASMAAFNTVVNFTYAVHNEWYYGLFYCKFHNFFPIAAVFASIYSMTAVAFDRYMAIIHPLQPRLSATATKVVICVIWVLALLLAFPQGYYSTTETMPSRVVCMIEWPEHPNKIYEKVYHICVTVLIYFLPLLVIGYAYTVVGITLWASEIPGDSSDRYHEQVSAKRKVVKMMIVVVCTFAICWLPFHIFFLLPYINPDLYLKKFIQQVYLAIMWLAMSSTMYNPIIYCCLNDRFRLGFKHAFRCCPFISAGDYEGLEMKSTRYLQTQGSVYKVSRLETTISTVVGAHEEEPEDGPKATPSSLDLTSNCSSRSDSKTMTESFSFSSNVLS

| EC50 (hNK3R; COS-7 cells) | hNK1R, IP3 Efficacy (hNK1R) | hNK3, IP3 Efficacy (hNK3R) [%] | Compound | EC50 (hNK2R) | hNK2R, IP3 Efficacy (hNK2R) | EC50 (hNK1R; COS-7 cells) | hNK1R, IP3 Efficacy (hNK1R; [2]) | Energy expenditure EC50 [1] [nmol/kg] | Energy expenditure efficacy (change relative to vehicle control) [1] [%] | Weight loss EC50 [1] [nmol/kg] | Weight loss efficacy (change relative to vehicle control) [1] [%] | hNK3, IP3 Efficacy (hNK3R; [2]) | Reduced weight loss efficacy compared to compound 304, 344 and 383 [1] |
| --- | --- | --- | --- | --- | --- | --- | --- | --- | --- | --- | --- | --- | --- |
| – | – | – | COCC[C@H](NC(=O)[C@H](CC(C)C)N(C)C(=O)CNC(=O)[C@@H](NC(=O)[C@H](Cc1ccc(O)cc1)NC(=O)[C@H](CCCCN)NC(=O)[C@H](CC(=O)O)NC(=O)COCCOCCNC(=O)COCCOCCNC(=O)CC[C@H](NC(=O)CCCCCCCCCCCCCCCCC(=O)O)C(=O)O)C(C)C)C(N)=O [compound 344, *Asp;Lys;Tyr;Val;Gly;NmLeu;Metox;NH2] ({C18 diacid-γGlu-AEEA-AEEA}-DKYVG[NMeL][hSer](Me)-NH2) | 2.2 nM and 3.1 nM and 5 nM and 3.2 nM | 90% and 100% and 110% | ~160 nM | 30% and 50% and ~30% | 13 | 12 | 130 | 10 | – | – |
| ~730 nM and ~720 nM | 17-50% | – | CCCC[C@H](NC(=O)[C@H](CC(C)C)N(C)C(=O)CNC(=O)[C@@H](NC(=O)[C@H](Cc1ccc(O)cc1)NC(=O)[C@H](CCCCN)NC(=O)[C@H](CC(=O)O)NC(=O)COCCOCCNC(=O)COCCOCCNC(=O)CC[C@H](NC(=O)CCCCCCCCCCCCCCCCC(=O)O)C(=O)O)C(C)C)C(N)=O [compound 305, *Asp;Lys;Tyr;Val;Gly;NmLeu;Nle;NH2] ({C18 diacid-γGlu-AEEA-AEEA}-DKYVG[NMeL][Nle]-NH2) | 3.7 nM and 4 nM and 2.2 to 13 nM | – | 520 nM and 450 to 3500 nM | 30% and ~30% | 34 | 11 | 69 | 6 | – | approximately 50% |
| 66 nM and 65 nM and 60 to 7000 nM | – | 100 | CCCC[C@H](NC(=O)[C@H](CC(C)C)N(C)C(=O)CNC(=O)[C@@H](NC(=O)[C@H](Cc1ccccc1)NC(=O)[C@H](CCCCN)NC(=O)[C@H](CC(=O)O)NC(=O)COCCOCCNC(=O)COCCOCCNC(=O)CC[C@H](NC(=O)CCCCCCCCCCCCCCCCC(=O)O)C(=O)O)C(C)C)C(N)=O [compound 304, *Asp;Lys;Phe;Val;Gly;NmLeu;Nle;NH2] | 2.1 nM and 1 to 11 nM | 90% and 100% and 80-90% | 34 nM and 40 nM and 12 to 250 nM | 80% and 80-85% | 94 | 11 | 16 | 12 | 65% and 60% and 85-100% | – |

| Compound | EC50 (hNK3R; COS-7 cells) | hNK1R, IP3 Efficacy (hNK1R) | hNK3, IP3 Efficacy (hNK3R) [%] | EC50 (hNK2R) | hNK2R, IP3 Efficacy (hNK2R) | EC50 (hNK1R; COS-7 cells) | hNK1R, IP3 Efficacy (hNK1R; [2]) | Energy expenditure EC50 [1] [nmol/kg] | Energy expenditure efficacy (change relative to vehicle control) [1] [%] | Weight loss EC50 [1] [nmol/kg] | Weight loss efficacy (change relative to vehicle control) [1] [%] | hNK3, IP3 Efficacy (hNK3R; [2]) | Reduced weight loss efficacy compared to compound 304, 344 and 383 [1] |
| --- | --- | --- | --- | --- | --- | --- | --- | --- | --- | --- | --- | --- | --- |
| COCC[C@H](NC(=O)[C@H](CC(C)C)N(C)C(=O)CNC(=O)[C@@H](NC(=O)[C@H](Cc1ccccc1)NC(=O)[C@H](CCCCN)NC(=O)[C@H](CC(=O)O)NC(=O)COCCOCCNC(=O)COCCOCCNC(=O)CC[C@H](NC(=O)CCCCCCCCCCCCCCCCC(=O)O)C(=O)O)[C@@H](C)O)C(N)=O [compound 383, *Asp;Lys;Phe;Thr;Gly;NmLeu;Metox;NH2] ({C18 diacid-γGlu-AEEA-AEEA}-DKFTG[NMeL][hSer](Me)-NH2) | 313 nM | – | – | 1.6 nM | 95% | 290 nM | 50% | 110 | 11 | 83 | 11 | 60% | – |
